Test results: US5441983A, “Treatment of infection by enveloped virus with calix(N)arene compounds” (Genelabs Incorporated, priority 1992, dated 1995)
In brackets after ≈: the same amount, converted by molar mass.

Tests used:
[1] = system: HSV-1 KOS; assay: Inhibition of viral yield, wild type HSV-1 KOS; details: Human alphaherpesvirus 1, HeLa, read-out: ID90
Procedure: (§13) These compounds tested were the nucleoside analogs acyclovir (ACV), ganciclovir (DHPG), phosphonoformate (PFA), and phosphomethoxyethyladenine (PMEA). Inhibition of viral yield was determined, as above, by infecting Hela cells in the presence of wild type or drug-resistant strains of HSV-1 or HSV-2, and serial dilutions of a selected anti-viral compound, and infecting Vero cells with serial dilutions of the Hela cell lysate, as above.
(§14) The KOS (HSV-1) and 333 (HSV-2) are wild type viruses; the KOS(PMEA)' and KOS(PFA)' are drug-resistant HSV-1 strains having a DNA polymerase mutation. The 333(DHPG) strain is a drug-resistantHSV-2 strain having a thymidine kinase mutation.
(§15) The following strains of HSV-1 and HSV-2 virus were used: KOS, a wild type HSV-1 virus; KOS (PMEA) and KOS (PFA), both drug-resistant HSV-1 viruses having a DNA polymerase mutation; 333, a wild type HSV-2 HSV-2 virus, and 333 (DHPG), a drug-resistant HSV-2 virus having a thymidine kinase mutation.
(§16) After growth at 37° C. for 24 hours in 2 ml of RPMI-1640 containing 2% FCS and penicillin and streptomycin (P/S), the cells were frozen at -70° C. until the time for titration. The cells were freeze/thawed 3 times to release virus from the cells, serially diluted 10 fold, and the serial dilutions were added to Vero cells in culture. After 2 hours incubation at 37° C. the virus was removed and 0.5 ml methycellulose (4K cps) in RPMI-1640 and 2% FCS+P/S was added. Two days later, the medium was removed. The cells were stained in 0.8% crystal violet in 50% ethanol. The plaques formed were counted and the titer was calculated from the fold of dilutions. From the drug dose response, the concentration of each drug required to effect a 90% inhibition of virus yield, the IC90 concentration was determined.

[2] = system: HSV-2 333 (DHPG)'; assay: Inhibition of viral yield, drug-resistant HSV-2 333(DHPG)'; details: Human alphaherpesvirus 2, HeLa, read-out: ID90
Procedure: as §13, §14, §15, §16

[3] = system: HSV-1 KOS (PFA)'; assay: Inhibition of viral yield, drug-resistant HSV-1 KOS(PFA)'; details: Human alphaherpesvirus 1, HeLa, read-out: ID90
Procedure: as §13, §14, §15, §16

[4] = system: HSV-2 333; assay: Inhibition of viral yield, wild type HSV-2 333; details: Human alphaherpesvirus 2, HeLa, read-out: ID90
Procedure: as §13, §14, §15, §16

[5] = system: HSV-1 or HSV-2; assay: Inhibition of HSV cytopathic effect (CPE) in Vero cells; details: 10-20 μg/ml
Procedure: In the method reported in Example 5, Vero cells were infected with HSV-1 or HSV-2 and allowed to grow in culture until cytopathic effects were clearly visible. In the absence of infection, the cells form an even monolayer of fibro-blastlike cells. With HSV infection, a cytopathic effect characterized by round cells in suspension is clearly evident after 24 hours, followed by clumping and lysis of infected cells after 24-72 hours.
In the drug inhibition study reported in Example 5, cells were exposed to HSV-1 or HSV-2 virus and, at the same time, to a selected aryl macrocyclic compound, at a final drug concentration of 10 μg/ml. Twenty-four hours later the cells were examined for cytopathic effect.
Vero cells were maintained in RPMI-1640 medium supplemented with 5% fetal calf serum, 100 Units of penicillin per ml and 100 μg of streptomycin per ml at 37° C. in a humidified incubator containing 7% CO2. The HSV strains HSV-1 (Kos-1) and HSV-2 (333) were used.
1×10^5 Vero cells were plated in each well of a 96 well microtitre plate in 0.2 ml RPMI-1640 medium containing 5% FCS and 0.1% methyl cellulose (15 cps). After overnight incubation, and cell doubling, the medium was aspirated and replaced with 100 .1 of the same medium containing 2% FCS, and 50.1 control or drug solution to a final drug concentration of 10 μg/ml and 50 μl virus, containing about 3 PFU/cell, i.e., 6 x 10^s PFU/well, of HSV-1 or HSV-2.
The cells were cultured for 24 hours at 37° C. at which time cytopathic effects are clearly visible. In the absence of viral infection, the cells form an even monolayer of fibroblast cells. With viral infection, the cells form a suspension of round cells, followed by cell clumping, whose appearance is easily distinguishable from normal fibroblast cells. If no detectable cytopathic effect was produced, the test was repeated with 10 μg/ml. A parallel set of cells without virus inoculation were done as a control for cytotoxicity to Vero cells.

[6] = system: HIV-HXB; assay: Inhibition of syncytia formation, HIV-HXB (HTLV-IIIB); details: for EC100: Human immunodeficiency virus 1, 18 h, read-out: HIV-HXB ED100, complete inhibition of syncytia formation
Procedure: (§17) Briefly, cells chronically infected with HTLV-IIIB or RF-II HIV strains were incubated in the presence of serial dilutions of the selected KY compound, then further cocultured with indicator cells. The extent of syncytia formation was scored under phase microscopy.
(§18) Representative calix(n)arene compounds from Table 2 were tested for inhibition of cytopathic effects in cells infected with one of two HTLV-III strains, HTLV-IIIB and RF-II strains, as described in Example 12, and in the subsection above.
(§19) Human CD4^+ indicator cells (VB) and chronically infected H9 cells were maintained in RPMI-1640 medium supplemented with 5% fetal calf serum, 100 Units of penicillin per ml and 100 μg of streptomycin per ml at 37° C. in a humidified incubator containing 7% CO2.
(§20) For the fusion assay, serial dilutions between 1:2 and 1:2^8 of a selected KY compound, 1 mg/ml in PBS were made in a 96 well round bottom plate. The diluted KY compound was transferred to a 96 well flat-bottom plate. To each well was added 25 μg chronically infected H9 cells (at 2×10^6, cells/ml), or cells chronically infected with RF-II strain HIV, followed by incubation at 37° C. for 45 minutes. To each well was then added 25 μl VB cells (about 5×10^4 cells), and the cells and virus isolates were cocultured for 18 hours in a humid 5% CO2 atmosphere.

[7] = system: HSV-2; assay: Plaque reduction assay, HSV-2, Vero cells; type: cell-based, HSV-2 (333); details: for IC50: Human alphaherpesvirus 2, Vero
Procedure: (§1) used in Table 3 were further tested for activity against HSV infection in
(§2) a plaque reduction assay, as detailed in Example 6. Here Vero cells, after
(§3) overnight incubation, were exposed to serial dilutions of KY compound,
(§4) from 0.625-10 μg/ml, and HSV-1 or HSV-2 virus for two hours. After
(§5) washing to remove drug and extracellular virus, the cells were further
(§6) incubated for 2 days, then stained and counted for plaque formation.
(§7) Percent inhibition was determined by dividing plaques produced by total
(§8) number of plaques in infected, untreated controls. From the concentration
(§9) effect curve of plaque inhibition (expressed as percent of control), the
(§10) concentration of compound required to produce 50% plaque reduction,
(§11) IC50, was determined. The IC50 values for infection by HSV-1 and
(§12) HSV-2 infection is given in the right-hand columns in Table 3. With

[8] = system: RSV; assay: Inhibition of RSV cytopathic effect in HEp2 cells; type: cell-based; details: human respiratory syncytial virus, HEp-2; HEp2 cells, cytopathic effect; read-out: ED50 RSV
[9] = system: HSV-1; assay: Plaque reduction assay, HSV-1, Vero cells; type: cell-based, HSV-1 (Kos-1); details: plaque reduction, Vero cells; for IC50: Human alphaherpesvirus 1, Vero
Procedure: as §1, §2, §3, §4, §5, §6, §7, §8, §9, §10, §11, §12

[10] = system: Influenza A (Taiwan); assay: Inhibition of influenza A cytopathic effect (clumping) in MDCK cells; type: cell-based, Influenza A virus (A/Taiwan strain); details: Influenza A virus, 24 h, 50% reduction in percent clumped cells, read-out: ED50 Influenza A (Taiwan)
Procedure: With virus infection, a cytopathic effect characterized by cell clumping is observed. For each compound tested, drug concentrations of 0.1, 1, 10, 25, and 100 μg/ml were added to cultured cells at the time of virus infection, as detailed in Examples 9 and 11. […] The inhibition of clumping was plotted as a function of drug concentration, to determine the dose effective to produce a 50% reduction in the percent clumped cells, measured with respect to control (no drug treatment).
Assays to assess the antiviral activity of KY- and Y-compounds in tissue culture were performed in 96-well flat-bottom tissue culture plates (Falcon 307), using conditions similar to those used in the cytotoxicity assays described above. In these assays, compound was tested in quadruplicate by serially diluting the compound in 2% FCS-MEM using serial two-fold dilutions (0.05 ml/well). A 0.05 ml volume of the appropriate virus containing approximately 100 median tissue culture infectious doses (TCID50) was then added to all wells except those set aside as antiviral and tissue control wells. Next, approximately 3×10^3 HEp2 cells (0.1 ml) were added to each well. Control wells containing antiviral and no virus (antiviral control), containing virus but no antiviral (virus control), or containing medium without virus or antiviral (tissue control), were included in each test. The challenge virus was then back titrated. All assay plates were incubated at 35° C. for 5 to 7 days in a 5% CO2 incubator.
The anti-influenza A activity of KY compounds was evaluated as described in Example 9, except that MDCK cells (kidney cell line) was used for infection in vitro by influenza virus (strain A/Taiwan).

[11] = system: HIV-RF-II; assay: Inhibition of syncytia formation, HIV-RF-II; details: for EC100: Human immunodeficiency virus 1, 18 h, read-out: HIV-RF-II ED100, complete inhibition of syncytia formation
Procedure: as §17, §18, §19, §20

[12] = system: HSV-1 KOS(PMEA)'; assay: Inhibition of viral yield, drug-resistant HSV-1 KOS(PMEA)'; details: Human alphaherpesvirus 1, HeLa, read-out: ID90
Procedure: as §13, §14, §15, §16

[13] = complete inhibition of syncytia formation

Nc1nc(O)c2ncn(COC(CO)CO)c2n1 [DHPG, ganciclovir]
IC90 [1]: 2 µM | IC90 [2]: 215 µM | IC90 [3]: 1 µM | IC90 [4]: 2 µM

O=S(=O)(O)c1cc2cc(S(=O)(=O)O)c3c(O)c2c(O)c1C(C(O)CO)c1c(S(=O)(=O)O)cc2cc(S(=O)(=O)O)c(c(O)c2c1O)C(C(O)CO)c1c(S(=O)(=O)O)cc2cc(S(=O)(=O)O)c(c(O)c2c1O)C(C(O)CO)c1c(S(=O)(=O)O)cc2cc(S(=O)(=O)O)c(c(O)c2c1O)C3C(O)CO (centres unmarked) [KY-48]
protection from CPE, in words [5]: low activity | EC100 [6]: 250 µg/mL

C=CC1c2c(S(=O)(=O)O)cc3cc(S(=O)(=O)O)c(c(O)c3c2O)C(C=C)c2c(S(=O)(=O)O)cc3cc(S(=O)(=O)O)c(c(O)c3c2O)C(C=C)c2c(S(=O)(=O)O)cc3cc(S(=O)(=O)O)c(c(O)c3c2O)C(C=C)c2c(S(=O)(=O)O)cc3cc(S(=O)(=O)O)c1c(O)c3c2O (centres unmarked) [KY-97]
IC50 [7]: > 10 µg/mL | EC50 [8]: 0.5 µg/mL (≈ 0.349 µM) | EC100 [6]: 32 µg/mL | IC50 [9]: > 10 µg/mL | EC50 [10]: 5 µg/mL (≈ 3.49 µM)

CC(=O)C1c2c(S(=O)(=O)O)cc3cc(S(=O)(=O)O)c(c(O)c3c2O)C(C(C)=O)c2c(S(=O)(=O)O)cc3cc(S(=O)(=O)O)c(c(O)c3c2O)C(C(C)=O)c2c(S(=O)(=O)O)cc3cc(S(=O)(=O)O)c(c(O)c3c2O)C(C(C)=O)c2c(S(=O)(=O)O)cc3cc(S(=O)(=O)O)c1c(O)c3c2O (centres unmarked) [KY-110]
protection from CPE, in words [5]: low activity | IC50 [7]: > 10 µg/mL | EC50 [8]: 4 µg/mL (≈ 2.67 µM) | EC100 [6]: 63 µg/mL | IC50 [9]: > 10 µg/mL | EC50 [10]: > 250 µg/mL

O=S(O)c1cc2cc(S(=O)O)c3c(O)c2c(O)c1Cc1c(S(=O)O)cc2cc(S(=O)O)c(c(O)c2c1O)Cc1c(S(=O)O)cc2cc(S(=O)O)c(c(O)c2c1O)Cc1c(S(=O)O)cc2cc(S(=O)O)c(c(O)c2c1O)C3 [KY-123]
IC50 [7]: 1.5 µg/mL (≈ 1.25 µM) | EC50 [8]: 1 µg/mL (≈ 0.832 µM) | EC100 [6]: 16 µg/mL | EC100 [11]: 16 µg/mL | IC50 [9]: 1.5 µg/mL (≈ 1.25 µM) | EC50 [10]: 31.3 µg/mL (≈ 26.1 µM)

CNS(=O)(=O)c1cc2cc(S(=O)(=O)NC)c3c(O)c2c(O)c1Cc1c(S(=O)(=O)NC)cc2cc(S(=O)(=O)NC)c(c(O)c2c1O)Cc1c(S(=O)(=O)NC)cc2cc(S(=O)(=O)NC)c(c(O)c2c1O)Cc1c(S(=O)(=O)NC)cc2cc(S(=O)(=O)NC)c(c(O)c2c1O)C3 [KY-147]
protection from CPE, in words [5]: low activity | IC50 [7]: > 10 µg/mL | EC100 [6]: 250 µg/mL | EC100 [11]: 250 µg/mL | IC50 [9]: > 10 µg/mL

CCNS(=O)(=O)c1cc2cc(S(=O)(=O)NCC)c3c(O)c2c(O)c1Cc1c(S(=O)(=O)NCC)cc2cc(S(=O)(=O)NCC)c(c(O)c2c1O)Cc1c(S(=O)(=O)NCC)cc2cc(S(=O)(=O)NCC)c(c(O)c2c1O)Cc1c(S(=O)(=O)NCC)cc2cc(S(=O)(=O)NCC)c(c(O)c2c1O)C3 [KY-148]
protection from CPE, in words [5]: low activity | EC100 [6]: 250 µg/mL

CS(=O)(=O)c1cc2cc(S(C)(=O)=O)c3c(O)c2c(O)c1Cc1c(S(C)(=O)=O)cc2cc(S(C)(=O)=O)c(c(O)c2c1O)Cc1c(S(C)(=O)=O)cc2cc(S(C)(=O)=O)c(c(O)c2c1O)Cc1c(S(C)(=O)=O)cc2cc(S(C)(=O)=O)c(c(O)c2c1O)C3 [KY-158]
protection from CPE, in words [5]: low activity | IC50 [7]: > 10 µg/mL | EC100 [6]: 500 µg/mL | EC100 [11]: 7500 µg/mL | IC50 [9]: > 10 µg/mL

Oc1c2c(S)cc3cc(S)c(c(O)c13)Cc1c(S)cc3cc(S)c(c(O)c3c1O)Cc1c(S)cc3cc(S)c(c(O)c3c1O)Cc1c(S)cc3cc(S)c(c(O)c3c1O)C2 [KY-171]
IC50 [7]: 3 µg/mL (≈ 3.17 µM) | EC100 [6]: 125 µg/mL | EC100 [11]: 250 µg/mL | IC50 [9]: 2.5 µg/mL (≈ 2.64 µM)

COS(=O)(=O)c1cc2cc(S(=O)(=O)OC)c3c(O)c2c(O)c1Cc1c(S(=O)(=O)OC)cc2cc(S(=O)(=O)OC)c(c(O)c2c1O)Cc1c(S(=O)(=O)OC)cc2cc(S(=O)(=O)OC)c(c(O)c2c1O)Cc1c(S(=O)(=O)OC)cc2cc(S(=O)(=O)OC)c(c(O)c2c1O)C3 [KY-175]
protection from CPE, in words [5]: low activity | IC50 [7]: > 10 µg/mL | EC100 [6]: 63 µg/mL | EC100 [11]: 250 µg/mL | IC50 [9]: > 10 µg/mL

O=S(=O)(O)c1c2c(O)c3c(O)c(c(S(=O)(=O)O)c(Br)c3c1Br)Cc1c(S(=O)(=O)O)c(Br)c3c(Br)c(S(=O)(=O)O)c(c(O)c3c1O)Cc1c(S(=O)(=O)O)c(Br)c3c(Br)c(S(=O)(=O)O)c(c(O)c3c1O)Cc1c(S(=O)(=O)O)c(Br)c3c(Br)c(S(=O)(=O)O)c(c(O)c3c1O)C2 [KY-194]
IC50 [7]: 1 µg/mL (≈ 0.51 µM) | EC50 [8]: 0.5 µg/mL (≈ 0.255 µM) | EC100 [6]: 63 µg/mL | EC100 [11]: 125 µg/mL | IC50 [9]: 1 µg/mL (≈ 0.51 µM) | EC50 [10]: 7.9 µg/mL (≈ 4.03 µM)

COc1c2c(S(=O)(=O)O)cc3cc(S(=O)(=O)O)c(c(OC)c13)Cc1c(S(=O)(=O)O)cc3cc(S(=O)(=O)O)c(c(OC)c3c1OC)Cc1c(S(=O)(=O)O)cc3cc(S(=O)(=O)O)c(c(OC)c3c1OC)Cc1c(S(=O)(=O)O)cc3cc(S(=O)(=O)O)c(c(OC)c3c1OC)C2 [KY-280]
HSV-2 IC50 [7]: 1 µg/mL | HIV-HXB ED100 [6, 13]: 16 | HIV-RF-II ED100 [11, 13]: 32 | HSV-1 IC50 [9]: 1.1 µg/mL

O=S(=O)(NO)c1cc2cc(S(=O)(=O)NO)c3c(O)c2c(O)c1Cc1c(S(=O)(=O)NO)cc2cc(S(=O)(=O)NO)c(c(O)c2c1O)Cc1c(S(=O)(=O)NO)cc2cc(S(=O)(=O)NO)c(c(O)c2c1O)Cc1c(S(=O)(=O)NO)cc2cc(S(=O)(=O)NO)c(c(O)c2c1O)C3 [KY-359]
IC50 [7]: 4.2 µg/mL (≈ 2.9 µM) | EC100 [6]: 32 µg/mL | EC100 [11]: 63 µg/mL | IC50 [9]: 5.75 µg/mL (≈ 3.97 µM)

COc1c2c(S(=O)(=O)O)cc3cc(S(=O)(=O)O)c(c(OC)c13)CN(C)Cc1c(S(=O)(=O)O)cc3cc(S(=O)(=O)O)c(c(OC)c3c1OC)CN(C)Cc1c(S(=O)(=O)O)cc3cc(S(=O)(=O)O)c(c(OC)c3c1OC)CN(C)Cc1c(S(=O)(=O)O)cc3cc(S(=O)(=O)O)c(c(OC)c3c1OC)CN(C)C2 [KY-395]
protection from CPE, in words [5]: low activity

O=C(O)P(=O)(O)O [PFA, phosphonoformate]
IC90 [1]: 180 µM | IC90 [3]: > 1000 µM | IC90 [12]: 3000 µM | IC90 [4]: 150 µM

Nc1ncnc2c1ncn2CCOCP(=O)(O)O [PMEA, phosphomethoxyethyladenine]
IC90 [1]: 100 µM | IC90 [2]: 120 µM | IC90 [3]: > 1000 µM | IC90 [12]: > 2000 µM | IC90 [4]: 155 µM

O=S(=O)(O)c1cc2c(O)c(c1)Cc1cc(S(=O)(=O)O)cc(c1O)Cc1cc(S(=O)(=O)O)cc(c1O)Cc1cc(S(=O)(=O)O)cc(c1O)C2 [Y-49]
IC50 [7]: 10 µg/mL (≈ 13.4 µM) | IC50 [9]: 5 µg/mL (≈ 6.71 µM)

O=C(O)C1c2c(S(=O)(=O)O)cc3cc(S(=O)(=O)O)c(c(O)c3c2O)C(C(=O)O)c2c(S(=O)(=O)O)cc3cc(S(=O)(=O)O)c(c(O)c3c2O)C(C(=O)O)c2c(S(=O)(=O)O)cc3cc(S(=O)(=O)O)c(c(O)c3c2O)C(C(=O)O)c2c(S(=O)(=O)O)cc3cc(S(=O)(=O)O)c1c(O)c3c2O (centres unmarked) [Y-66]
IC50 [7]: > 10 µg/mL | IC50 [9]: > 10 µg/mL

O=S(=O)(O)c1cc2c(O)c(c1)Cc1cc(S(=O)(=O)O)cc(c1O)Cc1cc(S(=O)(=O)O)cc(c1O)Cc1cc(S(=O)(=O)O)cc(c1O)Cc1cc(S(=O)(=O)O)cc(c1O)Cc1cc(S(=O)(=O)O)cc(c1O)C2 [Y-77]
IC50 [7]: 11 µg/mL (≈ 9.85 µM) | IC50 [9]: 8 µg/mL (≈ 7.16 µM)
